Results reported in patent EP2801357A1, “Carboxylated stilbenes for activating AMPK and sirtuins” (IMD Natural Solutions GmbH, priority 2013, dated 2014).
Like-named read-outs stand apart in the source and are kept apart here. Blank lines part the entries; values can stand above or below the molecule they belong to.

Key:
[1] = target: T1, human sirtuin-1 (Sirt1) (Homo sapiens, UniProt Q96EB6); test: SIRT1 Fluorimetric Drug Discovery Kit, Sirt1 activation; format: biochemical; settings: for Fold increase in sirt1 activity versus control: Example 1(a), 10 µM, trans-resveratrol as control (1.0); for remaining activity at 0.3 µM / remaining activity at 1 µM / remaining activity at 3 µM / remaining activity at 10 µM / remaining activity at 30 µM: read-out: Activity [% control]
T1 construct: purchased BioMol, Hamburg, Germany
T1 sequence (Q96EB6 1-747): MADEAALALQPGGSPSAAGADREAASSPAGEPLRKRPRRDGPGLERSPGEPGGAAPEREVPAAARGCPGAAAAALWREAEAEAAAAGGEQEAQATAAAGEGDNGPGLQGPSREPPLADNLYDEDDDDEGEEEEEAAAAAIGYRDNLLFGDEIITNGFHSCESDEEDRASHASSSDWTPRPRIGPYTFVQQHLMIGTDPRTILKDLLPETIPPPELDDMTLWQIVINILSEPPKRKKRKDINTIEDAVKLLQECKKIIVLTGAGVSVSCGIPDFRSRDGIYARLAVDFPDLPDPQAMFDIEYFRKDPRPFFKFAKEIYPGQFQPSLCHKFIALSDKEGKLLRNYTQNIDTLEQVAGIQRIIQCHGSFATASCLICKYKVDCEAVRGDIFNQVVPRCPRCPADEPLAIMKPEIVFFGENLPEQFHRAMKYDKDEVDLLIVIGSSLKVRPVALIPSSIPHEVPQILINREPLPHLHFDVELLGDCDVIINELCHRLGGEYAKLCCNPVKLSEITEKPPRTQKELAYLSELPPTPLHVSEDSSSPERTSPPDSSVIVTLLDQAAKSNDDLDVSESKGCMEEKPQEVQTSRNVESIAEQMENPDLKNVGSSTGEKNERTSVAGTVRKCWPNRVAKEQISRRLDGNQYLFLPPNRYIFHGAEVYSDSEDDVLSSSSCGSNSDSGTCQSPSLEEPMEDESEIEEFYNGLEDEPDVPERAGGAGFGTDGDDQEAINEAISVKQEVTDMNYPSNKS
Description: Compounds were tested for Sirt1 activation using the SIRT1 Fluorimetric Drug Discovery Kit (BioMol, Hamburg, Germany), Testing was carried out in duplicate following the manufacturer's instructions. Assay medium: 50mM Tris-HCl pH 8.0, 137 mM NaCl, 2.7 mM KCI, 1 mM MgCl2, 1 mg/ml bovine serum albumin (BSA). Stock solutions of the test compounds (10 mM in DMSO) were used, yielding a final concentration of 10 µM in the assay plate. Readout was obtained by measuring the fluorescence in a microtiter plate reader (excitation: 380 nm; detection: 440 nm).
The agonistic effect on Sirt1 was determined at different concentrations. For this purpose, the test compound stock solutions were diluted to yield concentrations of 0.3, 1, 3, 10 and 30 µM, respectively, in the assay, which was performed as described above. The compound of structure (I-1) was selected for this experiment.
The selectivity of the agonistic effect of the compound of formula (I-1) on different sirtuin isoforms was investigated. For this purpose, in vitro testing was performed as described in Example 1 using the respective SIRT1 Fluorimetric Drug Discovery Kit, SIRT2 Fluorimetric Drug Discovery Kit, and SIRT3 Fluorimetric Drug Discovery Kit (each from BioMol, Hamburg, Germany). […] The dose-response effect is slightly lesser on Sirt3. Table 3: Activity on Sirt1

[2] = tested on: 5'-AMP-activated protein kinase (AMPK); test: Western blot analysis of AMPK phosphorylation in NHEK; format: cell-based, human; settings: for AMPK phosphorylation [% Control] / P-AMPK / Ratio P-AMPK/ GAPDH: 48 h;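 on P-AMPK: Chemiluminescence band density of P-AMPK measured with Multigauge software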
[3] = target: T2, Sirt2 (Homo sapiens, UniProt Q8IXJ6); test: SIRT2 Fluorimetric Drug Discovery Kit, Sirt2 activation; format: biochemical; settings: Example 2, Table 6, Sirt2
T2 construct: purchased BioMol, Hamburg, Germany
T2 sequence (Q8IXJ6 1-389): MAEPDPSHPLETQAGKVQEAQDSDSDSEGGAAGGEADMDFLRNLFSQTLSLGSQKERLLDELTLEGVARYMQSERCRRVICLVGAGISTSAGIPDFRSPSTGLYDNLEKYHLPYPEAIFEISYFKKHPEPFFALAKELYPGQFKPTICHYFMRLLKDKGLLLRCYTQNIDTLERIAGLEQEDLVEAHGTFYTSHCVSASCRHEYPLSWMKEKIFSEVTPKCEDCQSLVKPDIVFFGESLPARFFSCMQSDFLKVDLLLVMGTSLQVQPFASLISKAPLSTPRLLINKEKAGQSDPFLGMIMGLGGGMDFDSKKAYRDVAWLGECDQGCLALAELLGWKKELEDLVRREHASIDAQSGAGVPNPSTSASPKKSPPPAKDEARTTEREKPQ

[4] = tested on: normal human epidermal keratinocytes (NHEK); test: MTT reduction assay, cytotoxicity in NHEK; format: cell-based; settings: for viability: NHEK, MTT
Description: Culture conditions: 37 °C, 5 % CO2. Culture medium: Keratinocyte-SFM (serum-free medium) containing human recombinant epidermal growth factor (EGF 1-53) 0.25 ng/mL and bovine pituitary extract 25 µg/mL (Gibco; Cat. No. 17005-075), supplemented with gentamycin 25 µg/mL. Assay medium: Keratinocyte-SFM (Gibco; Cat. No. 10744-019), supplemented with gentamycin 25 µg/mL.
NHEK were seeded in 24-well plates (30.000 cells / well) and cultured in culture medium for 24 h and then in assay medium for another 24 h. Medium was then removed and replaced by assay medium containing the respective test compound or reference in defined concentrations.
Cytotoxicity was determined using the 3-(4,5-dimethylthiazol-2-yl)-2,5-diphenyltetrazoliumbromid (MTT) reduction assay (sse T. Mosmann (1983) J. Immunol. Methods. 65, pp. 55-63).

[5] = Experiment 1, Membrane 1, 1000 µM
[6] = Experiment 1, Membrane 2, 300 µM

Fold increase in sirt1 activity versus control [1]: 4.8
SMILES: O=C(O)c1c(O)cccc1/C=C/c1ccc(O)cc1 [(I-2)]

Fold increase in sirt1 activity versus control [1]: 1.1
SMILES: COC(=O)c1c(/C=C/c2ccc(OC)cc2)cccc1OC [(I-3)]

Fold increase in sirt1 activity versus control [1]: 2.0
SMILES: COc1cc(/C=C/c2cccc(O)c2C(=O)O)cc(OC)c1O [(I-4)]

Fold increase in sirt1 activity versus control [1]: 2.7
SMILES: CC(=O)c1c(O)cccc1/C=C/c1ccc(OC2OC(CO)C(O)C(O)C2O)cc1 (stereo not drawn) [(I-5)]

SMILES: NC(=O)c1ncn([C@@H]2O[C@H](CO)[C@@H](O)[C@H]2O)c1N [AICAR, 5-Amino-1-ß-D-ribofuranosyl-imidazole-4-carboxamide]
AMPK phosphorylation [% Control] [2, 5]: 482 % Control
P-AMPK [2, 5]: 1060 AU/mm^2
Ratio P-AMPK/ GAPDH [2, 5]: 2.05
AMPK phosphorylation [% Control] ([2]; Experiment 2, 1000 µM): 506 % Control
P-AMPK ([2]; Experiment 2, 1000 µM): 1377449 AU/mm^2
Ratio P-AMPK/ GAPDH ([2]; Experiment 2, 1000 µM): 0.572

EC300 [3]: >30 µM
remaining activity at 0.3 µM ([1]; Example 1(b), Table 2, 0.3 µM): 104%
remaining activity at 1 µM ([1]; Example 1(b), Table 2, 1.0 µM): 101%
remaining activity at 3 µM ([1]; Example 1(b), Table 2, 3.0 µM): 100%
remaining activity at 10 µM ([1]; Example 1(b), Table 2, 10.0 µM): 108%
remaining activity at 30 µM ([1]; Example 1(b), Table 2, 30.0 µM): 120%
EC300 ([1]; Example 1(b), concentration that gave 3-times the basal response of the enzyme): > 30 µM
remaining activity at 0.3 µM ([1]; Example 2, Table 3, 0.3 µM): 121%
remaining activity at 1 µM ([1]; Example 2, Table 3, 1.0 µM): 100%
remaining activity at 3 µM ([1]; Example 2, Table 3, 3.0 µM): 117%
remaining activity at 10 µM ([1]; Example 2, Table 3, 10.0 µM): 111%
remaining activity at 30 µM ([1]; Example 2, Table 3, 30.0 µM): 145%
EC300 ([1]; Example 2, Table 6, Sirt1): >30 µM
SMILES: Oc1ccc(/C=C/c2cc(O)cc(O)c2)cc1 [trans-resveratrol]
AMPK phosphorylation [% Control] [2, 6]: 722 % Control
P-AMPK [2, 6]: 1616 AU/mm^2
AMPK phosphorylation [% Control] ([2]; Experiment 2, 10 µM): 81 % Control
P-AMPK ([2]; Experiment 2, 10 µM): 228626 AU/mm^2
AMPK phosphorylation [% Control] ([2]; Experiment 2, 30 µM): 86 % Control
P-AMPK ([2]; Experiment 2, 30 µM): 211794 AU/mm^2
AMPK phosphorylation [% Control] ([2]; Experiment 2, 100 µM): 117 % Control
P-AMPK ([2]; Experiment 2, 100 µM): 327757 AU/mm^2
AMPK phosphorylation [% Control] ([2]; Experiment 2, 200 µM): 816 % Control
P-AMPK ([2]; Experiment 2, 200 µM): 2361575 AU/mm^2
AMPK phosphorylation [% Control] ([2]; Experiment 2, 300 µM): 21 % Control
P-AMPK ([2]; Experiment 2, 300 µM): 69290 AU/mm^2
dosage needed for similar enhancement of AMPK phosphorylation ([2]; effect similar to compound (I-1) at 30 µM): at least 200 µM
viability ([4]; 100 µM): 2%
viability ([4]; 300 µM): 43%
concentrations with cytotoxic effects on NHEK ([4]; under assay conditions): ≥ 100 µM
